Source: patent US20240299273A1, “MULTIPHASIC LIQUID COMPOSITIONS FOR IMPROVED DEPOSITION OF ACTIVE INGREDIENTS” (SPECIALITY OPERATIONS FRANCE, priority 2021, published 2024)

Tests used:
[1] = Solubility of amphiphilic compound in pure water; assay type: physicochemical
[2] = Compatibility / phase separation of amphiphilic compound with amphiphilic surfactant system in water (microscope, visual appearance); assay type: physicochemical; details: concentrations as in the label, SLES alone at 12 wt. %
Protocol: Further, in certain embodiments, the amphiphilic compound forms a separate phase from the amphiphilic surfactant system when the amphiphilic surfactant system and the amphiphilic compound are combined in water. In this respect, the separate phase is determined by combining from 5 wt. % up to 70 wt. % of a total concentration of the amphiphilic compound and the amphiphilic surfactant system, based on a total weight of the amphiphilic compound, the amphiphilic surfactant system, and water totaling 100 wt. %, with the ratio of the amphiphilic surfactant system to the amphiphilic compound ranging from 99:1 to 50:50, preferably from 90:10 to 60:40, more preferably from 80:20 to 70:30, and determining whether any objects larger than 150 nm are observed using a conventional microscope, preferably an Olympus IX71 conventional microscope, equipped with 100× oil objective.
With respect to the amphiphilic compounds being immiscible with a combination of the amphiphilic surfactant system and water, the amphiphilic compounds can form a separate phase from the amphiphilic surfactant system in water at 25° C. […]
The interfacial tension was measured using Sigma 701 tensiometer, and compatibility was observed using Olympus IX71 conventional microscope equipped with 100× oil objective, as described above.

CCCCCCCCCCCCCCCCCC(=O)OCC[N+](C)(C)CCOC(=O)CCCCCCCCCCCCCCCCC.[Cl-] [DEEDMAC, Dimethylbis[2-[(1-oxooctadecyl)oxy]ethyl]ammonium chloride]
solubility in water [1]: < 1 wt %)

CCCCCCCCCC[N+](C)(C)CCCCCCCCCC.[Cl-] [Maquat 4450, didecyldimethylammonium chloride]
solubility in water (in words) [1]: high water solubility

CCCCCCCCCCCCCOC(=O)CC(C(=O)OCCCCCCCCCCCCC)S(=O)(=O)O.[Na] (stereo not shown) [Sodium bis(tridecyl) sulfosuccinate]
solubility in water [1]: < 1 wt %)

sodium laureth sulfate [sodium laureth sulfate (SLES)]
visual appearance (FIG. 2) [2]: transparent, and therefore, no phase separation
